The supplement of paper PMC8149375

What was measured:
Conditions in all cases: treatment: drug + dasatinib (fixed dose, not stated); 5 days
ACHN [1] = assay: GI50 of drug in presence of dasatinib; higher = less potent
Method: (§1)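 Primary HTS combination arm: 8 RCC cell lines treated with 8 doses (up to 10 uM) of each library drug plus a fixed dose of dasatinib (dose not stated) for 5 days; viability read by CellTiter-Glo and normalised to DMSO. GI50 was fitted with XLfit, AUC is the area under the dose-response curve, and minimum viability is the lowest fraction of DMSO viability across doses.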

A498 [2] = assay: as above
Method: as §1

CAKI-1 [3] = assay: as above
Method: as §1

SN12C [4] = assay: as above
Method: as §1

TK-10 [5] = assay: as above
Method: as §1

786-O [6] = assay: as above
Method: as §1

UO-31 [7] = assay: as above
Method: as §1

769-P [8] = assay: as above
Method: as §1

ACHN [9] = assay: AUC of dose-response viability curve, drug + dasatinib, normalised to DMSO (arbitrary (AUC of normalised viability)); higher = less growth inhibition
Method: as §1

A498 [10] = assay: as above
Method: as §1

CAKI-1 [11] = assay: as above
Method: as §1

SN12C [12] = assay: as above
Method: as §1

TK-10 [13] = assay: as above
Method: as §1

786-O [14] = assay: as above
Method: as §1

UO-31 [15] = assay: as above
Method: as §1

769-P [16] = assay: as above
Method: as §1

ACHN [17] = assay: minimum viability across doses, drug + dasatinib, relative to DMSO (fraction); higher = less growth inhibition
Method: as §1

A498 [18] = assay: as above
Method: as §1

CAKI-1 [19] = assay: as above
Method: as §1

SN12C [20] = assay: as above
Method: as §1

TK-10 [21] = assay: as above
Method: as §1

786-O [22] = assay: as above
Method: as §1

UO-31 [23] = assay: as above
Method: as §1

769-P [24] = assay: as above
Method: as §1

| SMILES | GI50 of drug (ACHN [1]) [nM] | GI50 of drug (A498 [2]) [nM] | GI50 of drug (CAKI-1 [3]) [nM] | GI50 of drug (SN12C [4]) [nM] | GI50 of drug (TK-10 [5]) [nM] | GI50 of drug (786-O [6]) [nM] | GI50 of drug (UO-31 [7]) [nM] | GI50 of drug (769-P [8]) [nM] | AUC of dose-response viability curve (ACHN [9]) | AUC of dose-response viability curve (A498 [10]) | AUC of dose-response viability curve (CAKI-1 [11]) | AUC of dose-response viability curve (SN12C [12]) | AUC of dose-response viability curve (TK-10 [13]) | AUC of dose-response viability curve (786-O [14]) | AUC of dose-response viability curve (UO-31 [15]) | AUC of dose-response viability curve (769-P [16]) | minimum viability across doses (ACHN [17]) | minimum viability across doses (A498 [18]) | minimum viability across doses (CAKI-1 [19]) | minimum viability across doses (SN12C [20]) | minimum viability across doses (TK-10 [21]) | minimum viability across doses (786-O [22]) | minimum viability across doses (UO-31 [23]) | minimum viability across doses (769-P [24]) |
| --- | --- | --- | --- | --- | --- | --- | --- | --- | --- | --- | --- | --- | --- | --- | --- | --- | --- | --- | --- | --- | --- | --- | --- | --- |
| CCCS(=O)(=O)Nc1ccc(F)c(C(=O)c2c[nH]c3ncc(-c4ccc(Cl)cc4)cc23)c1F [Vemurafenib (PLX4032)] + Cc1nc(Nc2ncc(C(=O)Nc3c(C)cccc3Cl)s2)cc(N2CCN(CCO)CC2)n1 [dasatinib] | 5760 | > 10000 | > 10000 | > 10000 | 9220 | 3840 | > 10000 | > 10000 | 2.05 | 3.37 | 2.39 | 2.62 | 2.4 | 2.11 | 3.4 | 2 | 0.403 | 0.838 | 0.57 | 0.719 | 0.6 | 0.326 | 0.853 | 0.618 |
| Cl.N=C(N)NC(=N)NCCc1ccccc1 [Phenformin hydrochloride] + Cc1nc(Nc2ncc(C(=O)Nc3c(C)cccc3Cl)s2)cc(N2CCN(CCO)CC2)n1 [dasatinib] | 3140 | > 10000 | > 10000 | 4330 | 5020 | 1060 | 4390 | > 10000 | 2.08 | 3.25 | 2.28 | 2.36 | 2.35 | 1.84 | 2.83 | 2.41 | 0.357 | 0.676 | 0.578 | 0.114 | 0.315 | 0.115 | 0.194 | 0.623 |
| CC(C)NC[C@@H](C(=O)N1CCN(c2ncnc3c2[C@H](C)C[C@H]3O)CC1)c1ccc(Cl)cc1 [GDC-0068] + Cc1nc(Nc2ncc(C(=O)Nc3c(C)cccc3Cl)s2)cc(N2CCN(CCO)CC2)n1 [dasatinib] | 6.5 | > 10000 | 1750 | > 10000 | 1190 | 24.5 | 4910 | > 10000 | 1.43 | 3.38 | 2.12 | 2.39 | 2.07 | 1.4 | 4.11 | 2.59 | 0.247 | 0.74 | 0.311 | 0.563 | 0.292 | 0.21 | 0.0701 | 0.628 |
| COc1ccc(-c2ccc3ncc4c(c3c2)n(-c2ccc(N3CCNCC3)c(C(F)(F)F)c2)c(=O)n4C)cn1.O=C(O)/C=C\C(=O)O [NVP-BGT226] + Cc1nc(Nc2ncc(C(=O)Nc3c(C)cccc3Cl)s2)cc(N2CCN(CCO)CC2)n1 [dasatinib] | 4.38 | 20 | 10.1 | 6.06 | 12.2 | 5.3 | 14.2 | 15.9 | 0.453 | 0.972 | 0.631 | 0.601 | 0.725 | 0.402 | 0.779 | 0.87 | 0.00153 | 0.0127 | 0.00249 | 0.00253 | 0.00345 | 0.00462 | 0.0107 | 0.00834 |
| CCn1c(-c2nonc2N)nc2c(C#CC(C)(C)O)ncc(OC[C@H]3CCCNC3)c21 + Cc1nc(Nc2ncc(C(=O)Nc3c(C)cccc3Cl)s2)cc(N2CCN(CCO)CC2)n1 [dasatinib] | 456 | > 10000 | 2670 | > 10000 | 1930 | 213 | > 10000 | > 10000 | 1.8 | 3.07 | 2.29 | 2.45 | 2.22 | 1.74 | 2.8 | 2.43 | 0.274 | 0.802 | 0.305 | 0.66 | 0.421 | 0.189 | 0.642 | 0.627 |
| O=C1NC(=O)/C(=C/c2ccc3c(c2)OC(F)(F)O3)S1 + Cc1nc(Nc2ncc(C(=O)Nc3c(C)cccc3Cl)s2)cc(N2CCN(CCO)CC2)n1 [dasatinib] | > 10000 | > 10000 | > 10000 | > 10000 | > 10000 | > 10000 | > 10000 | > 10000 | 2.11 | 3.79 | 2.42 | 2.34 | 2.52 | 2.32 | 4.77 | 2.51 | 0.538 | 0.925 | 0.634 | 0.645 | 0.655 | 0.543 | 1.28 | 0.679 |
| O=C(NC1CCNCC1)c1n[nH]cc1NC(=O)c1c(Cl)cccc1Cl [AT7519] + Cc1nc(Nc2ncc(C(=O)Nc3c(C)cccc3Cl)s2)cc(N2CCN(CCO)CC2)n1 [dasatinib] | 271 | 337 | 347 | 435 | 610 | 218 | 864 | 1130 | 1.44 | 2.2 | 1.64 | 1.59 | 2.09 | 1.52 | 2.79 | 2.02 | 0.00318 | 0.00778 | 0.0385 | 0.00559 | 0.179 | 0.00538 | 0.00867 | 0.0219 |
| CNC(=O)c1c(F)cccc1Nc1nc(Nc2cc3c(cc2OC)CCN3C(=O)CN(C)C)nc2[nH]ccc12 + Cc1nc(Nc2ncc(C(=O)Nc3c(C)cccc3Cl)s2)cc(N2CCN(CCO)CC2)n1 [dasatinib] | 434 | 8320 | 919 | 1520 | 1660 | 686 | 2920 | 1300 | 1.62 | 3.85 | 1.87 | 2.11 | 2.17 | 1.84 | 3.45 | 1.96 | 0.0022 | 0.015 | 0.00312 | 0.004 | 0.189 | 0.00553 | 0.0173 | 0.0146 |
| CC(=O)Nc1nc(C)c(-c2ccc(Cl)c(S(=O)(=O)NCCO)c2)s1 [PIK-93] + Cc1nc(Nc2ncc(C(=O)Nc3c(C)cccc3Cl)s2)cc(N2CCN(CCO)CC2)n1 [dasatinib] | 976 | 8110 | 1170 | 1890 | 3690 | 135 | 4320 | 4000 | 1.75 | 3.29 | 2.05 | 2.14 | 2.31 | 1.49 | 3.76 | 2.31 | 0.188 | 0.476 | 0.068 | 0.259 | 0.251 | 0.127 | 0.0793 | 0.352 |
| C[C@H](NC(=O)/C(C#N)=C/c1cccc(Br)n1)c1ccccc1 [WP1066] + Cc1nc(Nc2ncc(C(=O)Nc3c(C)cccc3Cl)s2)cc(N2CCN(CCO)CC2)n1 [dasatinib] | 8.56 | > 10000 | 3970 | > 10000 | > 10000 | 4310 | 7910 | 3930 | 1.48 | 3.03 | 2.28 | 2.36 | 2.77 | 2.35 | 4.08 | 2.49 | 0.0689 | 0.638 | 0.285 | 0.385 | 0.713 | 0.0254 | 0.00793 | 0.0555 |
| CC(C)n1nc(-c2cc3cc(O)ccc3[nH]2)c2c(N)ncnc21 [PP242] + Cc1nc(Nc2ncc(C(=O)Nc3c(C)cccc3Cl)s2)cc(N2CCN(CCO)CC2)n1 [dasatinib] | 24.5 | 1350 | 158 | 357 | 253 | 713 | 1140 | 401 | 1.19 | 2.41 | 1.51 | 1.74 | 1.86 | 1.74 | 2.82 | 1.86 | 0.0314 | 0.152 | 0.0342 | 0.0689 | 0.0716 | 0.00231 | 0.00386 | 0.0492 |
| CC(C)(C)c1cc(NC(=O)Nc2ccc(-c3cn4c(n3)sc3cc(OCCN5CCOCC5)ccc34)cc2)no1 [Quizartinib (AC220)] + Cc1nc(Nc2ncc(C(=O)Nc3c(C)cccc3Cl)s2)cc(N2CCN(CCO)CC2)n1 [dasatinib] | 2020 | 6270 | 1080 | > 10000 | > 10000 | 1560 | > 10000 | 2370 | 1.89 | 2.87 | 2.02 | 2.29 | 2.54 | 2.25 | 3.94 | 2.19 | 0.315 | 0.115 | 0.378 | 0.627 | 0.622 | 0.256 | 0.859 | 0.432 |
| Cn1cc(-c2ccc3ncc(Cc4ccc5ncccc5c4)n3n2)cn1 [NVP-BVU972] + Cc1nc(Nc2ncc(C(=O)Nc3c(C)cccc3Cl)s2)cc(N2CCN(CCO)CC2)n1 [dasatinib] | 15.4 | 1440 | 303 | 1900 | 836 | 361 | 2040 | 1150 | 1.28 | 3.44 | 1.71 | 2.12 | 2.03 | 1.79 | 3.81 | 2.06 | 0.0103 | 0.0158 | 0.0417 | 0.0116 | 0.119 | 0.00818 | 0.0147 | 0.0263 |
| CC(C)(C)Cn1c(N)nc2ccc(-c3[nH]c(C(C)(C)C)nc3-c3ccc(F)cc3)nc21.CS(=O)(=O)O.CS(=O)(=O)O + Cc1nc(Nc2ncc(C(=O)Nc3c(C)cccc3Cl)s2)cc(N2CCN(CCO)CC2)n1 [dasatinib] | 24.9 | > 10000 | 4370 | > 10000 | 5500 | > 10000 | > 10000 | 1760 | 1.45 | 3.68 | 2.18 | 2.36 | 2.23 | 2.48 | 3.24 | 2.07 | 0.244 | 0.949 | 0.435 | 0.54 | 0.447 | 0.617 | 0.508 | 0.255 |
